Measured values: ChEMBL document CHEMBL1154018, “Esters of betulin and betulinic acid with amino acids have improved water solubility and are selectively cytotoxic toward cancer cells” (Bioorg Med Chem Lett, 2009)

How the values were obtained:
[1] = Cytotoxicity against human EPP85-181P cells after 24 hrs by SRB method; format: functional, cell-based
[2] = Cytotoxicity against daunorubicin-resistant human EPP85-181RDB cells after 24 hrs by SRB method; format: functional, cell-based
[3] = Cytotoxicity against human EPG85-257P cells after 24 hrs by SRB method; format: functional, cell-based
[4] = Cytotoxicity against daunorubicin-resistant human EPG85-257RDB cells after 24 hrs by SRB method; format: functional, cell-based
[5] = Aqueous solubility in DMSO solution at 1 mg; format: physicochemical
[6] = Induction of apoptosis in human EPP85-181P cells assessed as cell accumulation at apoptotic phase after 24 hrs by comet assay; format: functional
[7] = Induction of apoptosis in human EPP85-181P cells assessed as normal cells after 24 hrs by comet assay; format: functional
[8] = Induction of apoptosis in human EPG85-257P cells assessed as cell accumulation at apoptotic phase after 24 hrs by comet assay; format: functional
[9] = Induction of apoptosis in human EPG85-257P cells assessed as normal cells after 24 hrs by comet assay; format: functional
[10] = Chemical stability in 0.02M phosphatre buffer of pH 7.4 after 6 days by RP-HPLC; format: physicochemical; settings: pH 7.4, 144 h

Compound | IC50 [1] [µM] | IC50 [2] [µM] | IC50 [3] [µM] | IC50 [4] [µM] | solubility [5] | Activity [6] [%] | Activity [7] [%] | Activity [8] [%] | Activity [9] [%] | Stability [10]
C=C(C)[C@@H]1CC[C@]2(CO)CC[C@]3(C)[C@H](CC[C@@H]4[C@@]5(C)CC[C@H](O)C(C)(C)[C@@H]5CC[C@]43C)[C@@H]12 [BETULIN] | > 50 | 46 | 26 | > 50 | Insoluble | 2 | 98 | 0.5 | 99.5 | 
C=C(C)[C@@H]1CC[C@]2(C(=O)O)CC[C@]3(C)[C@H](CC[C@@H]4[C@@]5(C)CC[C@H](O)C(C)(C)[C@@H]5CC[C@]43C)[C@@H]12 [BETULINIC ACID] | 32 | > 50 | 42 | > 50 | Soluble | 16 | 84 | 4 | 96 | 
C=C(C)[C@@H]1CC[C@]2(COC(=O)[C@@H](N)Cc3ccccc3)CC[C@]3(C)[C@H](CC[C@@H]4[C@@]5(C)CC[C@H](OC(=O)[C@@H](N)Cc6ccccc6)C(C)(C)[C@@H]5CC[C@]43C)[C@@H]12 | > 50 | > 50 | > 50 | > 50 | Soluble | 1 | 99 | 9 | 91 | 
C=C(C)[C@@H]1CC[C@]2(COC(=O)[C@@H](N)CCSC)CC[C@]3(C)[C@H](CC[C@@H]4[C@@]5(C)CC[C@H](OC(=O)[C@@H](N)CCSC)C(C)(C)[C@@H]5CC[C@]43C)[C@@H]12 | 22 | > 50 | 31 | > 50 | Soluble | 24.7 | 75.3 | 15.1 | 84.9 | 
C=C(C)[C@@H]1CC[C@]2(C(=O)O)CC[C@]3(C)[C@H](CC[C@@H]4[C@@]5(C)CC[C@H](OC(=O)[C@H](C)N)C(C)(C)[C@@H]5CC[C@]43C)[C@@H]12 | > 50 | > 50 | 48 | > 50 | Soluble | 25.9 | 74.1 | 1.4 | 98.6 | 
C=C(C)[C@@H]1CC[C@]2(COC(=O)[C@H](C)N)CC[C@]3(C)[C@H](CC[C@@H]4[C@@]5(C)CC[C@H](OC(=O)[C@H](C)N)C(C)(C)[C@@H]5CC[C@]43C)[C@@H]12 | 4.6 | 21 | 17 | > 50 | Soluble | 100 | 0 | 100 | 0 | 
C=C(C)[C@@H]1CC[C@]2(C(=O)O)CC[C@]3(C)[C@H](CC[C@@H]4[C@@]5(C)CC[C@H](OC(=O)[C@@H](N)Cc6ccccc6)C(C)(C)[C@@H]5CC[C@]43C)[C@@H]12 | > 50 | > 50 | > 50 | > 50 | Soluble | 3.1 | 96.9 | 2.5 | 97.5 | 
C=C(C)[C@@H]1CC[C@]2(C(=O)O)CC[C@]3(C)[C@H](CC[C@@H]4[C@@]5(C)CC[C@H](OC(=O)[C@@H](N)CCCN)C(C)(C)[C@@H]5CC[C@]43C)[C@@H]12 | 14 | > 50 | 9.7 | > 50 | Soluble | 99 | 1 |  |  | 
C=C(C)[C@@H]1CC[C@]2(COC(=O)[C@H](C)N)CC[C@]3(C)[C@H](CC[C@@H]4[C@@]5(C)CC[C@H](O)C(C)(C)[C@@H]5CC[C@]43C)[C@@H]12 | > 50 | > 50 | 38 | > 50 | Soluble | 5.2 | 94 | 42 | 58 | 
C=C(C)[C@@H]1CC[C@]2(COC(=O)CN)CC[C@]3(C)[C@H](CC[C@@H]4[C@@]5(C)CC[C@H](OC(=O)CN)C(C)(C)[C@@H]5CC[C@]43C)[C@@H]12 | > 50 | > 50 | > 50 | > 50 | Soluble | 0.5 | 99.5 |  |  | 
C=C(C)[C@@H]1CC[C@]2(COC(=O)[C@@H](N)CCCCN)CC[C@]3(C)[C@H](CC[C@@H]4[C@@]5(C)CC[C@H](OC(=O)[C@@H](N)CCCCN)C(C)(C)[C@@H]5CC[C@]43C)[C@@H]12 | 3.8 | 18 | 4.1 | > 50 | Soluble | 99.5 | 0.5 | 100 | 0 | Stable
C=C(C)[C@@H]1CC[C@]2(C(=O)O)CC[C@]3(C)[C@H](CC[C@@H]4[C@@]5(C)CC[C@H](OC(=O)[C@@H](N)CC)C(C)(C)[C@@H]5CC[C@]43C)[C@@H]12 | 26 | > 50 | 33 | > 50 | Soluble | 69.6 | 30.4 | 1.7 | 98.3 | 
C=C(C)[C@@H]1CC[C@]2(COC(=O)CN)CC[C@]3(C)[C@H](CC[C@@H]4[C@@]5(C)CC[C@H](O)C(C)(C)[C@@H]5CC[C@]43C)[C@@H]12 | > 50 | > 50 | > 50 | > 50 | Soluble | 1.4 | 98.6 | 9.8 | 90.2 | 
